Data from article PMC9518264, “Design and synthesis of novel quinazolinone-based derivatives as EGFR inhibitors with antitumor activity” (Journal of Enzyme Inhibition and Medicinal Chemistry, 2022).

Legend:
CCRF-CEM = assay: cells; type: cell-based; details: Homo sapiens, read-out: growth inhibition % (GI%)
K-562 = assay: cells; type: cell-based; details: Homo sapiens, K562, read-out: growth inhibition % (GI%)
RPMI-8226 = assay: cells; type: cell-based; details: Homo sapiens, RPMI-8226, read-out: growth inhibition % (GI%)
SR = assay: cells; type: cell-based; details: Homo sapiens, read-out: growth inhibition % (GI%)
EKVX = assay: cells; type: cell-based; details: Homo sapiens, read-out: growth inhibition % (GI%)
HOP-62 = assay: cells; type: cell-based; details: Homo sapiens, HOP-62, read-out: growth inhibition % (GI%)
HOP-92 = assay: cells; type: cell-based; details: Homo sapiens, HOP-92, read-out: growth inhibition % (GI%)
NCI-H226 = assay: cells; type: cell-based; details: Homo sapiens, NCI-H226, read-out: growth inhibition % (GI%)
NCI-H322M = assay: cells; type: cell-based; details: Homo sapiens, read-out: growth inhibition % (GI%)
NCI-H460 = assay: cells; type: cell-based; details: Homo sapiens, NCI-H460, read-out: growth inhibition % (GI%)
NCI-H522 = assay: cells; type: cell-based; details: Homo sapiens, NCI-H522, read-out: growth inhibition % (GI%)
COLO-205 = assay: cells; type: cell-based; details: Homo sapiens, COLO 205, read-out: growth inhibition % (GI%)
HCC-2998 = assay: cells; type: cell-based; details: Homo sapiens, HCC 2998, read-out: growth inhibition % (GI%)
HCT-116 = assay: cells; type: cell-based; details: Homo sapiens, HCT-116, read-out: growth inhibition % (GI%)
HT29 = assay: cells; type: cell-based; details: Homo sapiens, HT-29, read-out: growth inhibition % (GI%)
SW-620 = assay: cells; type: cell-based; details: Homo sapiens, SW-620, read-out: growth inhibition % (GI%)
SF-268 = assay: cells; type: cell-based; details: Homo sapiens, SF-268, read-out: growth inhibition % (GI%)
SF-539 = assay: cells; type: cell-based; details: Homo sapiens, SF-539, read-out: growth inhibition % (GI%)
SNB-19 = assay: cells; type: cell-based; details: Homo sapiens, SNB-19, read-out: growth inhibition % (GI%)
SNB-75 = assay: cells; type: cell-based; details: Homo sapiens, SNB-75, read-out: growth inhibition % (GI%)
LOX IMIV = assay: cells; type: cell-based; details: Homo sapiens, 60 cell, read-out: growth inhibition % (GI%)
MDA-MB-435 = assay: cells; type: cell-based; details: Homo sapiens, MDA-MB-435, read-out: growth inhibition % (GI%)
SK-MEL-2 = assay: cells; type: cell-based; details: Homo sapiens, SK-MEL-2, read-out: growth inhibition % (GI%)
SK-MEL-28 = assay: cells; type: cell-based; details: Homo sapiens, SK-MEL-28, read-out: growth inhibition % (GI%)
SK-MEL-5 = assay: cells; type: cell-based; details: Homo sapiens, SK-MEL-5, read-out: growth inhibition % (GI%)
UACC-257 = assay: cells; type: cell-based; details: Homo sapiens, UACC-257, read-out: growth inhibition % (GI%)
UACC-62 = assay: cells; type: cell-based; details: Homo sapiens, UACC-62, read-out: growth inhibition % (GI%)
IGROV1 = assay: cells; type: cell-based; details: Homo sapiens, IGROV-1, read-out: growth inhibition % (GI%)
OVCAR-4 = assay: cells; type: cell-based; details: Homo sapiens, OVCAR-4, read-out: growth inhibition % (GI%)
OVCAR-5 = assay: cells; type: cell-based; details: Homo sapiens, OVCAR-5, read-out: growth inhibition % (GI%)
OVCAR-8 = assay: cells; type: cell-based; details: Homo sapiens, OVCAR-8, read-out: growth inhibition % (GI%)
NCI/ADR-RES = assay: cells; type: cell-based; details: Homo sapiens, read-out: growth inhibition % (GI%)
SK-OV-3 = assay: cells; type: cell-based; details: Homo sapiens, SK-OV-3, read-out: growth inhibition % (GI%)
786-0 = assay: cells; type: cell-based; details: Homo sapiens, 786-0, read-out: growth inhibition % (GI%)
A498 = assay: cells; type: cell-based; details: Homo sapiens, A498, read-out: growth inhibition % (GI%)
ACHN = assay: cells; type: cell-based; details: Homo sapiens, read-out: growth inhibition % (GI%)
SN12C = assay: cells; type: cell-based; details: Homo sapiens, read-out: growth inhibition % (GI%)
TK-10 = assay: cells; type: cell-based; details: Homo sapiens, TK-10, read-out: growth inhibition % (GI%)
UO-31 = assay: cells; type: cell-based; details: Homo sapiens, UO-31, read-out: growth inhibition % (GI%)
PC-3 = assay: cells; type: cell-based; details: Homo sapiens, PC-3, read-out: growth inhibition % (GI%)
MDA-MB-231/ATCC = assay: NCI 60 cell line antiproliferative screening (SRB), Breast cancer; type: cell-based; details: Homo sapiens, MDA-MB-231, read-out: growth inhibition % (GI%)
BT-549 = assay: cells; type: cell-based; details: Homo sapiens, BT-549, read-out: growth inhibition % (GI%)
T-47D = assay: cells; type: cell-based; details: Homo sapiens, T47D, read-out: growth inhibition % (GI%)
[1] = tested on: panel of 60 tumour cell lines; assay: NCI 60 cell line antiproliferative screening (SRB), whole panel or subpanels (means, ranges, words); type: cell-based, human; details: Homo sapiens, 60 cell, mean over the cell line panel; 10 μM; read-out: Mean growth inhibition % (mean GI%)
MDA-MB-468 = assay: NCI 60 cell line antiproliferative screening (SRB), Breast cancer; details: Homo sapiens, MDA-MB-468, read-out: growth inhibition % (GI%)
OVCAR-3 = assay: NCI 60 cell line antiproliferative screening (SRB), Ovarian cancer; details: Homo sapiens, OVCAR-3, read-out: growth inhibition % (GI%)

`O=C(CSc1nc2ccccc2c(=O)n1-c1ccc(Cl)cc1)NN=Cc1ccc(N2CCCCC2)cc1` [6j, 2-((3–(4-chlorophenyl)-4-oxo-3,4-dihydroquinazolin-2-yl)thio)-N'-(4-(piperidin-1-yl)benzylidene) acetohydrazide] gave an inhibition at 10 µM (CCRF-CEM) of less than 15%, an inhibition at 10 µM (K-562) of 26.4% and an inhibition at 10 µM (RPMI-8226) of less than 15%. It also gave an inhibition at 10 µM (SR) of 25.2%, an inhibition at 10 µM (EKVX) of 17.9% and an inhibition at 10 µM (HOP-62) of 81.6%. For the same compound, the inhibition at 10 µM (HOP-92) was 37.7%, the inhibition at 10 µM (NCI-H226) was 61.8% and the inhibition at 10 µM (NCI-H322M) was 23%. The inhibition at 10 µM (NCI-H460) was 90.3%, the inhibition at 10 µM (NCI-H522) was less than 15% and the inhibition at 10 µM (COLO-205) was 17.9%. For the same compound, the inhibition at 10 µM (HCC-2998) was less than 15%, the inhibition at 10 µM (HCT-116) was 63.1% and the inhibition at 10 µM (HT29) was 39.1%. The inhibition at 10 µM (SW-620) was 34.1%, the inhibition at 10 µM (SF-268) was 65.3% and the inhibition at 10 µM (SF-539) was 58.7%. It also gave an inhibition at 10 µM (SNB-19) of 56.8%, an inhibition at 10 µM (SNB-75) of 20.1% and an inhibition at 10 µM (LOX IMIV) of 56.5%. For the same compound, the inhibition at 10 µM (MDA-MB-435) was less than 15%, the inhibition at 10 µM (SK-MEL-2) was less than 15% and the inhibition at 10 µM (SK-MEL-28) was 15.2%. The inhibition at 10 µM (SK-MEL-5) was less than 15%, the inhibition at 10 µM (UACC-257) was less than 15% and the inhibition at 10 µM (UACC-62) was 26.5%. The inhibition at 10 µM (IGROV1) was 44.5%, the inhibition at 10 µM (OVCAR-4) was 41.4% and the inhibition at 10 µM (OVCAR-5) was 23.1%. For the same compound, the inhibition at 10 µM (OVCAR-8) was 34.7%, the inhibition at 10 µM (NCI/ADR-RES) was 60.1% and the inhibition at 10 µM (SK-OV-3) was 69.9%. It also gave an inhibition at 10 µM (786-0) of 92.8%, an inhibition at 10 µM (A498) of 21.5% and an inhibition at 10 µM (ACHN) of 82.6%. The inhibition at 10 µM (SN12C) was 37.6%, the inhibition at 10 µM (TK-10) was less than 15% and the inhibition at 10 µM (UO-31) was 47%. It also gave an inhibition at 10 µM (PC-3) of 21.4%, an inhibition at 10 µM (MDA-MB-231/ATCC) of 28.1% and an inhibition at 10 µM (BT-549) of less than 15%. The inhibition at 10 µM (T-47D) was 25.4%, the inhibition at 10 µM [1] was 34.2% and the inhibition at 10 µM (MDA-MB-468) was 20.5%. It also gave an inhibition at 10 µM (OVCAR-3) of 67.2%.
